In patent publication CN113143900A, “Ml365在制备预防和/或治疗nlrp3炎症小体相关疾病的药物中的应用” (Southern Medical University, priority 2021, dated 2021):
Entries after “also recorded” stand apart in the source; their conditions may differ.

Experiments:
[1] = system: NLRP3 inflammasome [NLRP3炎症小体]; settings: mouse BMDM; pharmacological inhibition (or knockout) of TWIK2; Di et al. 2018; cited from earlier work
[2] = target: T1, human TWIK1 channel, functional mutant muTWIK1 I293/294A/K274E [人源TWIK1-I293/294A/K274E, muTWIK1] (Homo sapiens, UniProt O00180, I293A/I294A/K274E); assay: Whole-cell patch clamp of transfected COS-7 cells, TWIK1 (muTWIK1) current; assay type: cell-based
T1 construct: GFP (green fluorescent protein label of the plasmid); expressed in transfected cells; host or cells: COS-7
T1 sequence (O00180 1-336 K274E/I293A/I294A): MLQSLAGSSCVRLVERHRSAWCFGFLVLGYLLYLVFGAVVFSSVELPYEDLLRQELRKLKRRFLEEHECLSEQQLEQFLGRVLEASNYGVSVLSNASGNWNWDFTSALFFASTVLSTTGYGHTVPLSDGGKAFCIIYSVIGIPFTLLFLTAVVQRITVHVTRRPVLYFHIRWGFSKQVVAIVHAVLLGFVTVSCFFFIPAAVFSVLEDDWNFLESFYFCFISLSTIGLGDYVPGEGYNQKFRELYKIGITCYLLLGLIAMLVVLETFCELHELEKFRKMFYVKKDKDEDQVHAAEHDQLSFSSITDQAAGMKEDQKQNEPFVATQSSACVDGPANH

[3] = system: NLRP3 inflammasome [NLRP3炎症小体]; assay: Nigericin-induced NLRP3 inflammasome activation in LPS-primed BMDM (WB, ELISA); assay type: cell-based, mouse
TNF-α = TNF-α in supernatants of LPS + ATP treated BMDM, ELISA; assay type: cell-based, mouse; settings: same supernatants
[4] = system: NLRC4 inflammasome [NLRC4炎症小体]; assay: NLRC4 inflammasome activation (Pam3CSK4 + Flagellin), IL-1β ELISA; assay type: cell-based, mouse; settings: ML365 5 μM (Fig. 9)
[5] = system: NLRP3 inflammasome [NLRP3炎症小体]; assay: ATP- or Nigericin-induced NLRP3 inflammasome activation in human THP-1 macrophages; assay type: cell-based
[6] = system: NLRP3 inflammasome [NLRP3炎症小体]; assay: ATP-induced NLRP3 inflammasome activation in LPS-primed BMDM, Western blot (WB); assay type: cell-based, mouse
[7] = target: T2, human TWIK2 channel, functional mutant muTWIK2 Y308A/I289A/L290A [人源TWIK2-Y308A/I289A/L290A, muTWIK2] (Homo sapiens, UniProt Q9Y257, I289A/L290A/Y308A); assay: Whole-cell patch clamp of transfected COS-7 cells, TWIK2 (muTWIK2) current; assay type: cell-based
T2 construct: GFP (green fluorescent protein label of the plasmid); expressed in transfected cells; host or cells: COS-7
T2 sequence (Q9Y257 1-313 I289A/L290A/Y308A): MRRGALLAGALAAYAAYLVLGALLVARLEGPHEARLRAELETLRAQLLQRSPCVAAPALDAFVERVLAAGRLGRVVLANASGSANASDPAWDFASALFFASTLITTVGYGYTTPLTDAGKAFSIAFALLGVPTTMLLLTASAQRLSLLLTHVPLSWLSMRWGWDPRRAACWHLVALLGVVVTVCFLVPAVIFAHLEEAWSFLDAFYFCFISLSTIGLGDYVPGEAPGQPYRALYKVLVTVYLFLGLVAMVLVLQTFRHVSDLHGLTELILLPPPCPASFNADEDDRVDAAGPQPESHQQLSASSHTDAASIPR

[8] = system: AIM2 inflammasome [AIM2炎症小体]; assay: AIM2 inflammasome activation (LPS + poly(dA:dT)), IL-1β ELISA; assay type: cell-based, mouse; settings: ML365 5 μM (Fig. 9)
[9] = system: NLRP3 inflammasome [NLRP3炎症小体]; assay: ATP-induced IL-1β release from LPS-primed BMDM, ELISA; assay type: cell-based, mouse
[10] = target: T3, human THIK1 channel [人源THIK1, THIK1通道] (Homo sapiens, UniProt Q9HB14); assay: Whole-cell patch clamp of transfected COS-7 cells, THIK1 current; assay type: cell-based
T3 construct: GFP (green fluorescent protein label of the plasmid); expressed in transfected cells; host or cells: COS-7
T3 sequence (Q9HB14 1-408): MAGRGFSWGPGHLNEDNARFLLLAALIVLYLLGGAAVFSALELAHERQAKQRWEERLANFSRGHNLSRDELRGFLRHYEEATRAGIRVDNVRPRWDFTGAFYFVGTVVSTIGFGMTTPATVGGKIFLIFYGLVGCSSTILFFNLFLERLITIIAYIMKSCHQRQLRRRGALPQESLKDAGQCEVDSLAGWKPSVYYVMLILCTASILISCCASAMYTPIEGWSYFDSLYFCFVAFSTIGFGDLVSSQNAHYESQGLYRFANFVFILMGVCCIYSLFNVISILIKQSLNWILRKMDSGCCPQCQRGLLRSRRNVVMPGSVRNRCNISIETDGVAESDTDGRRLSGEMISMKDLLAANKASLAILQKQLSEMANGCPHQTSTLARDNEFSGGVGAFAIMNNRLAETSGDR

[11] = system: NLRP3 inflammasome [NLRP3炎症小体]; assay: ATP-induced NLRP3 inflammasome activation in BMDM after siRNA knockdown of TWIK2 (WB, ELISA); assay type: cell-based, mouse; settings: ML365 5 μM (Fig. 11), TWIK2 siRNA 50 nM 48 h, LPS + ATP
[12] = system: non-canonical inflammasome [非经典炎症小体]; assay: Non-canonical inflammasome activation (Pam3CSK4 + transfected LPS), IL-1β ELISA; assay type: cell-based, mouse; settings: ML365 5 μM (Fig. 9)

C=C[C@H]1CN2CC[C@H]1C[C@H]2[C@H](O)c1ccnc2ccc(OC)cc12 [奎宁]
ASC oligomerisation (in words) [1]: 抑制caspase-1的激活、ATP诱发的IL-1β的释放以及凋亡相关斑点形成蛋白ASC的寡聚化 | ATP-evoked IL-1β release (in words) [1]: 抑制caspase-1的激活、ATP诱发的IL-1β的释放 | caspase-1 activation (in words) [1]: 抑制caspase-1的激活 | effect on NLRP3 inflammasome activation (in words) [1]: 可以抑制BMDM细胞中NLRP3炎症小体的激活

COc1ccccc1C(=O)Nc1cccc(NC(=O)c2cccc(C)c2)c1 [ML365, 2-甲氧基-N-[3-[(3-甲基苯甲酰基)氨基]苯基]苯甲酰胺]
inhibition of muTWIK1 channel (in words) ([2]; 10 μM): 没有抑制作用 | inhibition of muTWIK1 channel (in words) ([2]; 20 μM): 也无抑制作用 | effect on TWIK1 channel function (in words) ([2]; concentration not stated): 不影响 | effect on Nigericin-induced NLRP3 inflammasome activation (in words) ([3]; BMDM, even at 10 and 20 μM, Nigericin 10 μM 30 min): 没有影响 | effect on Nigericin-induced NLRP3 inflammasome activation (in words) ([3]; concentration not stated): 无影响 | TNF-α expression (in words) (TNF-α): 几乎无影响 | effect on NLRC4 inflammasome activation / induced IL-1β production (in words) [4]: 不抑制 and 无影响 | effect on ATP-induced NLRP3 inflammasome activation (in words) ([5]; ATP): 也在人THP-1巨噬细胞中得到证实 and 抑制 | effect on Nigericin-induced NLRP3 inflammasome activation (in words) ([5]; Nigericin): 也在人THP-1巨噬细胞中得到证实 and 无影响 | effect on ATP-induced NLRP3 inflammasome activation (in words) ([6]; LPS 5 μg/mL overnight, compound 2 h, ATP 5 mM 1 h): 阻断 and 剂量依赖性地抑制 and 可以特异性抑制 and 可特异性地抑制 and 可特异性抑制 | expression level of caspase-1 in cell supernatant (in words) ([6]; WB, LPS + ATP): 有所降低 | expression level of mature IL-1β in cell supernatant (in words) ([6]; WB, LPS + ATP): 有所降低 | inhibition of TWIK2 channel (in words) ([7]; 10 μM in Fig. 3, muTWIK2 in COS-7 cells): 特异性强效抑制剂; also recorded: 强效抑制剂; also recorded: 较强的抑制作用 | I/I0 (inhibition of TWIK2 channel) ([7]; ML365 10 μM, muTWIK2 in COS-7 cells): 0.35±0.02 | activity at 10 µM ([7]; ML365 10 μM, muTWIK2 in COS-7 cells, read-out: I/I0 (inhibition of TWIK2 channel)): 35 ± 2% | selectivity for TWIK2 channel (in words) ([7]; compared with TWIK1 and THIK1): 特异性选择抑制剂; also recorded: 强效选择性抑制剂; also recorded: 选择性抑制剂 | IC50 ([7]; inhibition of TWIK2 channel, dose-response curve on muTWIK2, COS-7 cells): 4.07 µM | effect on AIM2 inflammasome activation / induced IL-1β production (in words) [8]: 不抑制 and 无影响 | IL-1β release (in words) [9]: 显著降低 | inhibition of THIK1 channel (in words) ([10]; 10 μM): 几乎无抑制作用 | inhibition of THIK1 channel (in words) ([10]; 20 μM): 也无抑制作用 | effect on THIK1 channel function (in words) ([10]; concentration not stated): 不影响 | inhibition of ATP-induced NLRP3 inflammasome activation by ML365 after TWIK2 knockdown (in words) [11]: 可阻断 and 极大减弱 and 显著下降 and 可消除 | effect on non-canonical inflammasome activation (in words) [12]: 不抑制 and 无影响
